Experimental data as given in ChEMBL document CHEMBL5150032, “Sunitinib-based Proteolysis Targeting Chimeras (PROTACs) reduced the protein levels of FLT-3 and c-KIT in leukemia cell lines” (Bioorg Med Chem Lett, 2022).
One block for each compound: values may come before it. The source made the active and inactive calls. The calls are words filed in the database; no cut-off is given here. Residues, ends and D or L forms follow the SMILES beside them. *: point of attachment. Cbz = O=C(OCc1ccccc1)*

How the values were obtained:
HL-60 [1] = test: Antiproliferative activity against human HL-60 cells assessed as inhibition of cell growth incubated for 48 hrs by CCK-8 assay; format: functional, cell-based; details: HL-60, 48 h
K562 [2] = test: Antiproliferative activity against human K562 cells assessed as inhibition of cell growth incubated for 48 hrs by CCK-8 assay; format: functional, cell-based; details: K562, 48 h
A498 [3] = test: Antiproliferative activity against human A498 cells assessed as inhibition of cell growth incubated for 48 hrs by CCK-8 assay; format: functional, cell-based; details: A498, 48 h
K562 [4] = test: Antiproliferative activity against human K562 cells assessed as reduction in cell viability at 20 uM incubated for 24 hrs by CCK-8 assay; format: functional, cell-based
HL-60 [5] = test: Antiproliferative activity against human HL-60 cells assessed as reduction in cell viability at 20 uM incubated for 24 hrs by CCK-8 assay; format: functional, cell-based
[6] = Cytotoxicity against human NCM460 cells assessed as inhibition of cell growth; format: toxicity, cell-based
[7] = target: T1, von Hippel-Lindau disease tumor suppressor/Receptor-type tyrosine-protein kinase FLT3 (Homo sapiens) (UniProt P36888+P40337); test: PROTAC activity at VHL/FLT-3 in human K562 cells assessed as reduction in FLT-3 protein level at 20 uM incubated for 48 hrs by Western blot analysis; format: cell-based
T1 sequence (P36888 27-993 limits assumed): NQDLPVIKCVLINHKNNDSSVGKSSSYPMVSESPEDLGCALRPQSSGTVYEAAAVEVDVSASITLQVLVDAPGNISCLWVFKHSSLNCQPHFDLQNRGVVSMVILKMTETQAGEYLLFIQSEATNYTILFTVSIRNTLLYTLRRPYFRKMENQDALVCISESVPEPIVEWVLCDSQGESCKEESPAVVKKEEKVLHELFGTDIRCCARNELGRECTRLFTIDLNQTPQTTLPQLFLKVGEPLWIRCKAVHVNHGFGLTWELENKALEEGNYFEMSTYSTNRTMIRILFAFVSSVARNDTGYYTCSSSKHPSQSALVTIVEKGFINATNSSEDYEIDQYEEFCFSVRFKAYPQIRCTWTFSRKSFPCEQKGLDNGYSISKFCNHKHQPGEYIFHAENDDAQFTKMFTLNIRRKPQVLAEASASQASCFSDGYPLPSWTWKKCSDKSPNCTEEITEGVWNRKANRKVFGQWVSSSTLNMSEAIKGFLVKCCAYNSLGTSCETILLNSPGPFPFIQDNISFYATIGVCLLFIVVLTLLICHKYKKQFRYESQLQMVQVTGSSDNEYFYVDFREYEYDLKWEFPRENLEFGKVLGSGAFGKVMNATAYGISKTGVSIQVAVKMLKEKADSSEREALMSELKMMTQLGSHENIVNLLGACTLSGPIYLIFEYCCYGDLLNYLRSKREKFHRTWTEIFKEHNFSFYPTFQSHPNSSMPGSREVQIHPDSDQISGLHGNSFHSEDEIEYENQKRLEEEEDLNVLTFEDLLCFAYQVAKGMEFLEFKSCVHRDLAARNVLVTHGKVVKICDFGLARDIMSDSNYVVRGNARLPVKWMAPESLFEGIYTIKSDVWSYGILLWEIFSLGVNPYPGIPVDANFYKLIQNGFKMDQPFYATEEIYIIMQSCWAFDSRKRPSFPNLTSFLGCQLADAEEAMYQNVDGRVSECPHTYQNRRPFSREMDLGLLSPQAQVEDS
T1 sequence (P40337 whole entry partner): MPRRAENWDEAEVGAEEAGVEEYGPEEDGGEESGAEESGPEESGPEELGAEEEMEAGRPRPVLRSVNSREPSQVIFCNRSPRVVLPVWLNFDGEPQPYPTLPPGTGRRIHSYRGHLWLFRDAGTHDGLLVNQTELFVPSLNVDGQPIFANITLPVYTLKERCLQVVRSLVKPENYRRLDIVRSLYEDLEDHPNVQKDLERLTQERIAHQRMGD

A498 [8] = test: Antiproliferative activity against human A498 cells assessed as reduction in cell viability at 20 uM incubated for 24 hrs by CCK-8 assay; format: functional, cell-based
[9] = target: T1, von Hippel-Lindau disease tumor suppressor/Receptor-type tyrosine-protein kinase FLT3 (Homo sapiens); test: PROTAC activity at VHL/FLT-3 in human HL-60 cells assessed as reduction in FLT-3 protein level at 20 uM preincubated with MG-132 for 1 hrs followed by compound addition and measured after for 48 hrs by Western blot analysis; format: cell-based
[10] = target: T1, von Hippel-Lindau disease tumor suppressor/Receptor-type tyrosine-protein kinase FLT3 (Homo sapiens); test: PROTAC activity at VHL/FLT-3 in human HL-60 cells assessed as reduction in FLT-3 protein level at 20 uM incubated for 24 hrs by Western blot analysis; format: cell-based
[11] = target: T1, von Hippel-Lindau disease tumor suppressor/Receptor-type tyrosine-protein kinase FLT3 (Homo sapiens); test: PROTAC activity at VHL/FLT-3 in human HL-60 cells assessed as reduction in FLT-3 protein level at 10 uM incubated for 12 hrs by Western blot analysis; format: cell-based
[12] = target: T2, von Hippel-Lindau disease tumor suppressor/Mast/stem cell growth factor receptor Kit (Homo sapiens) (UniProt P10721+P40337); test: PROTAC activity at VHL/c-KIT in human HL-60 cells assessed as reduction in c-KIT protein level at >10 uM measured at 24 to 48 hrs by Western blot analysis; format: cell-based; details: time 24-48 hrs
T2 sequence (P10721 whole entry, looked up): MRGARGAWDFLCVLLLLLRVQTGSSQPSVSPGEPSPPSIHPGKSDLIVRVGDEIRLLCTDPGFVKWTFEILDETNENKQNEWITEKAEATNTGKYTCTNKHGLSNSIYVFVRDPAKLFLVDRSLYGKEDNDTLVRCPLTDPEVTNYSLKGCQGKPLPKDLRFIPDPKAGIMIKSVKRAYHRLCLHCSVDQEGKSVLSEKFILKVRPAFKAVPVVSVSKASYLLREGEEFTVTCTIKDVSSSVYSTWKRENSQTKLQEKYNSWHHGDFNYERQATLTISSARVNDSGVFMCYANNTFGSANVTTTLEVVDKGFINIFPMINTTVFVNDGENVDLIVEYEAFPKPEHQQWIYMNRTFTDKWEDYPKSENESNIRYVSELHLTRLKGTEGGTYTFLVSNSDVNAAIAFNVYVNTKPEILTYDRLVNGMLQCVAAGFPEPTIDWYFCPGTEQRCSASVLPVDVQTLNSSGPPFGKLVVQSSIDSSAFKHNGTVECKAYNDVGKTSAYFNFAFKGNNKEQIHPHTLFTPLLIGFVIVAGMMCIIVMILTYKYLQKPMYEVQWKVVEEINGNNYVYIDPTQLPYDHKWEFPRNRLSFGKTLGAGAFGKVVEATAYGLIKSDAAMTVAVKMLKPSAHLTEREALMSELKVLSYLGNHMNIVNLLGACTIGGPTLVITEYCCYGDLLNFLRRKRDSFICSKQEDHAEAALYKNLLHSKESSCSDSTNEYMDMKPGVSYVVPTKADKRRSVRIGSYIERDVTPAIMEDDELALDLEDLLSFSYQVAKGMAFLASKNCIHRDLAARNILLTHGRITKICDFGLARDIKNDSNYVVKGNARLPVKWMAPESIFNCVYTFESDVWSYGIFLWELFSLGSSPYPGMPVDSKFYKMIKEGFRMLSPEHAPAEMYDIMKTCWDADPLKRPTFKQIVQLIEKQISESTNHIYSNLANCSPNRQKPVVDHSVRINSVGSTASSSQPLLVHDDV
T2 sequence (P40337 whole entry, looked up): as the sequence (P40337 whole entry partner) above

[13] = target: T1, von Hippel-Lindau disease tumor suppressor/Receptor-type tyrosine-protein kinase FLT3 (Homo sapiens); test: PROTAC activity at VHL/FLT-3 in human HL-60 cells assessed as reduction in FLT-3 protein level at 10 to 20 uM incubated for 48 hrs by Western blot analysis; format: cell-based; details: dose 10-20 µM
[14] = target: T1, von Hippel-Lindau disease tumor suppressor/Receptor-type tyrosine-protein kinase FLT3 (Homo sapiens); test: PROTAC activity at VHL/FLT-3 in human HL-60 cells assessed as reduction in FLT-3 protein level at 10 uM by Western blot analysis; format: cell-based; details: time 4-48 hrs, TDE = time-dependent effect
[15] = target: T2, von Hippel-Lindau disease tumor suppressor/Mast/stem cell growth factor receptor Kit (Homo sapiens); test: PROTAC activity at VHL/c-KIT in human HL-60 cells assessed as reduction in c-KIT protein level at 20 uM preincubated with VHL032 for 1 hrs followed by compound addition and measured after for 48 hrs by Western blot analysis; format: cell-based
[16] = target: T1, von Hippel-Lindau disease tumor suppressor/Receptor-type tyrosine-protein kinase FLT3 (Homo sapiens); test: PROTAC activity at VHL/FLT-3 in human HL-60 cells assessed as reduction in FLT-3 protein level at 1 uM incubated for 1 hrs by Western blot analysis; format: cell-based

SMILES: Cc1ncsc1-c1ccc(CNC(=O)[C@@H]2C[C@@H](O)CN2C(=O)[C@@H](NC(=O)COCCOCCOCCNC(=O)c2c(C)[nH]c(/C=C3\C(=O)Nc4ccc(F)cc43)c2C)C(C)(C)C)cc1
IC50 (HL-60 [1]): 12.7 µM
IC50 (K562 [2]): 15.2 µM
IC50 (A498 [3]): 18.1 µM

SMILES: CCN(CC)CCNC(=O)c1c(C)[nH]c(/C=C2\C(=O)Nc3ccc(F)cc32)c1C [SUNITINIB]
IC50 (HL-60 [1]): 8.7 µM
IC50 (K562 [2]): 5.8 µM
IC50 (A498 [3]): 1.2 µM

SMILES: CCN(CCNC(=O)c1c(C)[nH]c(/C=C2\C(=O)Nc3ccc(F)cc32)c1C)CC(=O)N[C@H](C(=O)N1C[C@H](O)C[C@H]1C(=O)NCc1ccc(-c2scnc2C)cc1)C(C)(C)C
Activity (K562 [4]): Active
IC50 (HL-60 [1]): 36.5 µM
Activity (HL-60 [5]): Active
IC50 [6]: > 100 µM
Activity [7]: Active
IC50 (K562 [2]): 8.4 µM
IC50 (A498 [3]): 26.5 µM
Activity (A498 [8]): Active

Now from value to compound, other results behind:

Activity [9]: Active
Activity [10]: Active
Activity [11]: Active
Activity [12]: Active
IC50 (HL-60 [1]): 2.9 µM
Activity [13]: Active
Activity [14]: Tde
Activity [7]: Active
IC50 (K562 [2]): 11.6 µM
Activity [15]: Active
SMILES: Cc1ncsc1-c1ccc(CNC(=O)[C@@H]2C[C@@H](O)CN2C(=O)[C@@H](NC(=O)COCCOCCNC(=O)c2c(C)[nH]c(/C=C3\C(=O)Nc4ccc(F)cc43)c2C)C(C)(C)C)cc1
Activity (K562 [4]): Active
Activity (HL-60 [5]): Active
IC50 [6]: > 100 µM
IC50 (A498 [3]): 13.1 µM
Activity (A498 [8]): Active

Activity [16]: Active
SMILES: CC(C)C[C@@H](C=O)NC(=O)[C@H](CC(C)C)NC(=O)[C@H](CC(C)C)NC(=O)OCc1ccccc1 (Cbz-Leu-Leu-Leu-aldehyde)
